US10132029B2, “Method for reducing adhesion of microorganisms to fabrics” (priority 2013, dated 2018)
“And” between values parts separate entries of the source, which are not always exact repeats. Identical values can stand only once. Like-named read-outs stand apart in the source and are kept apart here.

Experiments:
[1] = tested on: S. aureus DSMZ 20231; experiment: Syto9 microtiter plate assay: adhesion of bacteria to coated polyester fabric samples; type: cell-based, Staphylococcus aureus; settings: for Reduction in adhered bacteria [%]: S. aureus, polyester; for Reduction in adhered bacteria [%] S. aureus: polyester fabric, application concentration 0.1 wt %, commercial product applied directly by padding, relative to uncoated fabric
Experimental: (§1) Circular fabric samples with a diameter of 0.6 cm were punched from coated and uncoated cotton and polyester fabrics. The fabric samples were fixed to a microtiter plate. The fabric samples were washed with acetone and sterilized with UV light for 60 minutes.
(§2) The strains were coated fresh from glycerol bacterial cultures onto tryptic soy agar (TSA). Incubation took place overnight at 33° C. The nutrient medium prepared was a tryptic soy broth (TSB), with 30% of the amount recommended by the manufacturer, supplemented with 0.25% of glucose. […] The nutrient medium was inoculated with the bacterial cultures and after inoculation was cultivated overnight at 37° C. and 160 rpm.
(§3) The resulting overnight cultures were centrifuged at 8500 g for 15 minutes and washed with 50 ml of isotonic saline solution (0.9 wt %). Bacterial suspensions in isotonic saline solutions were prepared. The optical density of the various bacterial suspensions was determined at 595 nm and adjusted to a level of about 1.2.
(§4) 50 μl of the final microorganism suspension in isotonic saline solution (0.9 wt %) prepared as described under 2.2 were added to the coated and uncoated fabric samples fixed on the microtiter plate (see 2.1). The microtiter plates were closed and sealed off with Parafilm. The microtiter plates were placed in an antievaporation box and incubated at 33° C. for 2 h and at 40 rpm. The expected colony-forming unit count (CFU) of the inoculum at the start was 10^6-10^7 CFU/ml.
(§5) After the biofilm had formed, the planctonic cells were removed and used as a sample for determining the optical density at 595 nm. For this purpose, the samples were made up to a volume of 150 μl, and 100 μl were withdrawn for the optical density determination in a photometer. The optical density of the corresponding control solution with sterile isotonic saline solution was subtracted from the optical densities found. Through the determination of the planctonic cells after the formation of biofilm, the amount of bacteria available for adhesion was monitored.
(§6) The fabric samples and the resulting biofilm were washed three times with 200 to 300 μl of isotonic saline solution.
(§7) The fabric samples obtained under 2.4 (after formation of biofilm) were placed together with 100 μl of isotonic saline solution into wells of a 96-well microtiter plate.
(§8) Investigations into the removal of the adhered microorganisms from the fabric surfaces were carried out with vortexing, ultrasound, with enzymatic treatment, or with combinations thereof. Treatment in the vortex amounted to 5 minutes and was performed horizontally. The ultrasound treatment was carried out in an ultrasound bath for 5 minutes. For the enzymatic removal, the fabric samples were treated with enzymes, such as trypsin or a mixture of different enzymes, for example, during incubation at 37° C. for 1 hour.
(§9) Following removal of the adhered bacteria, the fabric samples were removed from the microtiter plates.
(§10) The number of removed bacteria in the resulting suspension was determined by staining with Syto9 and fluorescence measurement (fluorescence filter with excitation at 485/20 nm and emission at 528/20 nm) or by staining with BacTiterGlo and bioluminescence measurement. Furthermore, it is possible to determine the number of adhered and removed microorganisms by means of protein assay (e.g., BCA assay, Bradford Assay) or optical density proliferation assay.
The relative variables (e.g., fluorescence units (RFU)) concerning the coated and uncoated fabrics were compared, allowing the reduction in adhered bacteria in % to be determined in accordance with the following formula: Reduction in adhered bacteria[%]=[(RFUuc−RFUuc)/RFUuc]*100 where • RFUuc=relative fluorescence units of the removed bacteria of the uncoated substrate • RFUc=relative fluorescence units of the removed bacteria of the coated substrate […]

[2] = tested on: P. aeruginosa DSMZ 1117; type: cell-based, Pseudomonas aeruginosa; settings: for Reduction in adhered bacteria [%]: P. aeruginosa, polyester; for Reduction in adhered bacteria [%] P. aeruginosa: polyester fabric, application concentration 0.1 wt %, commercial product applied directly by padding, relative to uncoated fabric
Experimental: as §1, §2, §3, §4
as §5, with “The optical density of the corresponding control solution with sterile isotonic saline solution was subtracted from the optical densities found.” left out
as §6, §7, §8, §9, §10
The relative variables (e.g., fluorescence units (RFU)) concerning the coated and uncoated fabrics were compared, allowing the reduction in adhered bacteria in % to be determined in accordance with the following formula: Reduction in adhered bacteria[%]=[(RFUuc−RFUuc)/RFUuc]*100 where • RFUuc=relative fluorescence units of the removed bacteria of the uncoated substrate • RFUc=relative fluorescence units of the removed bacteria of the coated substrate
The commercial products described in example 1 were applied directly by a padding method to polyester fabric samples.
Bacterial adhesion to the polyester fabric samples was investigated using the microtiter plate Syto9 assay, as described in example 2.

[3] = tested on: Staphylococcus aureus; experiment: Antimicrobial activity of coated polyester fabric samples as per JIS L 1902; type: cell-based; settings: for Antimicrobial activity[log] Unwashed: 18 hours at 37° C.
Experimental: The procedure here is that the fabric sample was inoculated with a defined amount of a microbial suspension (inoculum). Test specimens with a weight of approximately 0.4 g were investigated in a triplicate determination.
The inoculated fabric sample was incubated in a closed system at 37° C. over a period of 18 hours. Following incubation, the bacteria of a defined amount of a dilution solution were recorded. The difference in the bacterial count of the fabric sample at 0 hours in comparison to the fabric sample after 18 hours served as a basis for evaluation. The antimicrobial activity is reported as a logarithmic or percentage value. Here, a reduction in the microbe count of 0% corresponds to inadequate antimicrobial action, a microbe reduction in the range from 0.1 to less than 90% to an inadequate antibacterial action, and a microbe reduction of greater than 90% to a good antibacterial action.

[4] = tested on: Staphylococcus aureus; type: cell-based; settings: for Reduction in cell count relative to control [%] S. aureus: coated glass slide vs uncoated glass control K; for Cell count [1/cm^2] S. aureus: glass slide coated from 0.1% strength solution, bacterial suspension 10^9 microbes/ml, 30 measuring windows
Text: (§11) Silane derivatives S1, S3, S4 and S5 as identified above in example 1 were used to produce coatings on glass slides. As a control (comparison sample) K, an uncoated glass slide cleaned with isopropanol was used.
(§12) For the coating of the slides they were immersed for 60 seconds into a 0.1% strength solution of the corresponding silane derivative in ethanol/water as solvent with a water fraction of 5%. The solutions had been adjusted with acetic acid beforehand to a pH in the range from 4 to 5. The wetted slides were subsequently dried at 160° C. for 1 hour.
(§13) The slides wetted with the bacterial suspension were analyzed by microscope to determine the adhering bacteria. […] The fluorescent dye used was DAPI (4′,6-diamidine-2-phenylindole), which binds to DNA and fluoresces under UV excitation. In order to determine the adhesion characteristics, the cell counts per cm^2 were ascertained in 30 measuring windows, and the adhesion pattern was evaluated. Cell attachment was evaluated on an Olympus IX 51 using the Labflow AnalySIS image processing program.
(§14) Bacterial suspensions produced and used were suspensions of test cultures of the strains Staphylococcus aureus and Escherichia coli. The concentration of the bacterial suspension was 10^9 microbes/ml.

[5] = tested on: Escherichia coli; experiment: Bacterial adhesion to coated glass slides via fluorescence microscopy (DAPI); type: cell-based; settings: for Reduction in cell count relative to control [%] E. coli: coated glass slide vs uncoated glass control K; for Cell count [1/cm^2] E. coli: glass slide coated from 0.1% strength solution, bacterial suspension 10^9 microbes/ml, 30 measuring windows
Text: as §11, §12, §13, §14

[6] = coating concentration 0.001 %, wash pretreatment (A) unwashed
[7] = coating concentration 0.001 %, wash pretreatment (B) washed twice at 30° C. only with water
[8] = coating concentration 0.01 %, wash pretreatment (A) unwashed
[9] = coating concentration 0.01 %, wash pretreatment (B) washed twice at 30° C. only with water
[10] = coating concentration 0.01 %, wash pretreatment (C) washed once at 30° C. EN ISO 6330 method 8A with ECE B detergent
[11] = coating concentration 0.1 %, wash pretreatment (A) unwashed
[12] = coating concentration 0.1 %, wash pretreatment (B) washed twice at 30° C. only with water
[13] = coating concentration 0.1 %, wash pretreatment (C) washed once at 30° C. EN ISO 6330 method 8A with ECE B detergent
[14] = coating concentration 0.001 % based on fabric
[15] = coating concentration 0.01 % based on fabric
[16] = coating concentration 0.1 % based on fabric

## bis[3-(triethoxysilylpropoxy)-2-hydroxypropoxy)]polyethylene oxide (5-10 EO units) [S2]
[1]; [6]
  Reduction in adhered bacteria [%]: 30%
[1]; [7]
  Reduction in adhered bacteria [%]: 52%
[1]; [8]
  Reduction in adhered bacteria [%]: 71%
[1]; [9]
  Reduction in adhered bacteria [%]: 31%
[1]; [10]
  Reduction in adhered bacteria [%]: 66%
[1]; [11]
  Reduction in adhered bacteria [%]: 55%
[1]; [12]
  Reduction in adhered bacteria [%]: 48%
[1]; [13]
  Reduction in adhered bacteria [%]: 49%
[1]
  Reduction in adhered bacteria [%] S. aureus: 85%
[2]; [6]
  Reduction in adhered bacteria [%]: 62%
[2]; [7]
  Reduction in adhered bacteria [%]: 87%
[2]; coating concentration 0.001 %, wash pretreatment (C) washed once at 30° C. EN ISO 6330 method 8A with ECE B detergent
  Reduction in adhered bacteria [%]: 55%
[2]; [8]
  Reduction in adhered bacteria [%]: 79%
[2]; [9]
  Reduction in adhered bacteria [%]: 36%
[2]; [10]
  Reduction in adhered bacteria [%]: 75%
[2]; [11]
  Reduction in adhered bacteria [%]: 68%
[2]; [12]
  Reduction in adhered bacteria [%]: 45%
[2]; [13]
  Reduction in adhered bacteria [%]: 75%
[2]
  Reduction in adhered bacteria [%] P. aeruginosa: 64%
[3]; [14]
  Antimicrobial activity[log] Unwashed: 0.2 log
  Antimicrobial activity[log] Washed once at 30° C., without detergent: −0.1 log
  Antimicrobial activity[log] Washed twice with water: 0.1 log
[3]; [15]
  Antimicrobial activity[log] Unwashed: −0.4 log
  Antimicrobial activity[log] Washed once at 30° C., without detergent: −0.6 log
  Antimicrobial activity[log] Washed twice with water: 0.1 log
[3]; [16]
  Antimicrobial activity[log] Unwashed: −0.2 log
  Antimicrobial activity[log] Washed once at 30° C., without detergent: −0.4 log
  Antimicrobial activity[log] Washed twice with water: 0.00 log

## methoxy(polyethyleneoxy)propyltrimethoxysilane (9-12 EO units) [S1]
[1]
  Reduction in adhered bacteria [%] S. aureus: 34%
[2]
  Reduction in adhered bacteria [%] P. aeruginosa: 41%
[4]
  Reduction in cell count relative to control [%] S. aureus: 76%
  Cell count [1/cm^2] S. aureus: 110 000 1/cm^2
[4]; coated glass slides
  adhesion of S. aureus to coated glass, assessment in words: Very good results
[5]; both series of tests (S. aureus and E. coli), compared with glass control
  adhesion of bacteria to coated glass, assessment in words: very good results
[5]
  Reduction in cell count relative to control [%] E. coli: 63%
  Cell count [1/cm^2] E. coli: 296 000 1/cm^2

## CCO[Si](CCCNC(=O)[C@H](O)[C@@H](O)[C@H](O)[C@H](O)CO)(OCC)OCC [S4, N-(triethoxysilylpropyl)gluconamide]
[1]
  Reduction in adhered bacteria [%] S. aureus: 58%
[2]
  Reduction in adhered bacteria [%] P. aeruginosa: 57%
[4]; S. aureus on coated glass surface
  adhesion pattern on microscopic inspection: only a few grapelike assemblies of S. aureus
[4]
  Reduction in cell count relative to control [%] S. aureus: 16% and 17%
  Cell count [1/cm^2] S. aureus: 383 000 1/cm^2
[5]
  Reduction in cell count relative to control [%] E. coli: 51%
  Cell count [1/cm^2] E. coli: 389 000 1/cm^2
